Experimental data: ChEMBL document CHEMBL1152887, “Identification of novel and potent 2-amino benzamide derivatives as allosteric glucokinase activators” (Bioorg Med Chem Lett, 2009)

How the values were obtained:
Hexokinase-4 [1] = target: T1, Hexokinase-4 (Homo sapiens, UniProt P35557)
T1 sequence (P35557 whole entry): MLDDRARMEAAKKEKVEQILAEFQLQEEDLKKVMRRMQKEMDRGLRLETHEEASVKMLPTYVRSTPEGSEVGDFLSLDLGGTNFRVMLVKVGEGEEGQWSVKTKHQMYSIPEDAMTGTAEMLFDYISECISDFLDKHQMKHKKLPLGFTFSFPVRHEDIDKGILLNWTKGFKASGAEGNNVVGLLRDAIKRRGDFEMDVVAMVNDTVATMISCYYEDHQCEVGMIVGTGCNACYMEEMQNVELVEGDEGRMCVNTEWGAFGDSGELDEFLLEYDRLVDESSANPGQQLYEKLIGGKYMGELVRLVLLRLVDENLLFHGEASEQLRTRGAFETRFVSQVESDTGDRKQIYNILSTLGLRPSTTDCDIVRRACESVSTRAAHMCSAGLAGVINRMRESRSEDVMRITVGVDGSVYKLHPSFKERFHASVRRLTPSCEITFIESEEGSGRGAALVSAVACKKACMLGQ

Hexokinase-4 [2] = target: T1, Hexokinase-4; remark: listed apart in the source
[3] = Oral bioavailability in Wistar rat at 3 mg/kg; type: ADME, organism-based; details: in vivo
[4] = Tmax in Wistar rat at 1 mg/kg, iv and 3 mg/kg, po; type: ADME, organism-based; details: in vivo
[5] = Volume of distribution in Wistar rat at 1 mg/kg, iv and 3 mg/kg, po; type: ADME, organism-based; details: in vivo
[6] = Clearance in Wistar rat at 1 mg/kg, iv and 3 mg/kg, po; type: ADME, organism-based; details: in vivo
Rattus norvegicus = assay: Glucose lowering effect in po dosed Wistar rat assessed as decrease in plasma glucose level administered 30 mins before glucose challenge by OGTT; type: functional, organism-based
[7] = Half life in Wistar rat at 1 mg/kg, iv; type: ADME, organism-based; set-up: dose 1 mg/kg, route intravenous; details: in vivo
[8] = Cmax in Wistar rat at 1 mg/kg, iv and 3 mg/kg, po; type: ADME, organism-based; details: in vivo

Row | SMILES | EC50 (Hexokinase-4 [1]) [nM] | EC50 (Hexokinase-4 [2]) [nM] | further results
1 | Cc1csc(NC(=O)c2cc(Sc3nccn3C)ccc2N)n1 | 100 | 230 | –
2 | Cc1csc(NC(=O)c2cc(Sc3ccccc3)ccc2N)n1 | 200 | 920 | –
3 | Cc1csc(NC(=O)c2cc(Cl)ccc2N)n1 | 1400 | 6500 | –
4 | Cc1csc(NC(=O)c2ccc(Cl)cc2N)n1 | > 30000 | > 30000 | –
5 | Cn1cnnc1Sc1ccc(N)c(C(=O)Nc2ccncc2)c1 | > 10000 | > 10000 | –
6 | Cc1cnc(NC(=O)c2cc(Sc3nncn3C)ccc2N)s1 | 110 | 330 | –
7 | COc1ccccc1Oc1ccc(N)c(C(=O)Nc2nc(C)cs2)c1 | 120 | 410 | –
8 | Cc1csc(NC(=O)c2cc(Sc3nncn3C)ccc2[N+](=O)[O-])n1 | > 10000 | > 10000 | –
9 | CCOc1ccc(N)c(C(=O)Nc2nc(C)cs2)c1 | 1700 | 6800 | –
10 | Cc1csc(NC(=O)c2cc(Oc3cccc(F)c3)ccc2N)n1 | 140 | 600 | –
11 | Cc1nsc(NC(=O)c2cc(Sc3nncn3C)ccc2N)n1 | 180 | 640 | –
12 | Cc1csc(NC(=O)c2cc(Sc3nncn3C)ccc2N)n1 | – | – | bioavailability [3]: 100%; Tmax [4]: 30 min; Vd [5]: 0.4 L/kg; clearance [6]: 14.3 mL/min/kg; Activity (Rattus norvegicus): Dose-dependent effect; half-life [7]: 54 min; Cmax [8]: 8.5 µM
13 | Cc1csc(NC(=O)c2cc(Oc3ccc(F)cc3)ccc2N)n1 | 400 | 1700 | –
14 | CCSc1ccc(N)c(C(=O)Nc2nc(C)cs2)c1 | 180 | 780 | –
15 | Cn1cnnc1Sc1ccc(N)c(C(=O)Nc2cccnc2)c1 | > 10000 | > 10000 | –
16 | Cn1cnnc1Sc1ccc(N)c(C(=O)Nc2ccccc2)c1 | > 10000 | > 10000 | –

Row | SMILES | EC50 (Hexokinase-4 [1]) [nM] | EC50 (Hexokinase-4 [2]) [nM] | further results
17 | Cn1cnnc1Sc1ccc(N)c(C(=O)Nc2ncns2)c1 | 120 | 490 | –
18 | Cn1cnnc1Sc1ccc(N)c(C(=O)Nc2ccccn2)c1 | 230 | 1200 | –
19 | CCOC(=O)c1csc(NC(=O)c2cc(Sc3nncn3C)ccc2N)n1 | 420 | 1100 | –
20 | Cn1cnnc1Sc1ccc(N)c(C(=O)Nc2nc(CO)cs2)c1 | 420 | 1600 | –
21 | Cc1csc(NC(=O)c2cc(Sc3ncc[nH]3)ccc2N)n1 | 380 | 1600 | –
22 | Cn1cnnc1Sc1ccc(N)c(C(=O)Nc2nccs2)c1 | 130 | 350 | –
23 | Cc1csc(NC(=O)c2cccc(Sc3nncn3C)c2)n1 | 1500 | 7300 | –
24 | Nc1ccc(Cl)cc1C(=O)Nc1nccs1 | 2600 | 11000 | –
25 | Cc1csc(NC(=O)c2cc(Oc3ccccc3F)ccc2N)n1 | 100 | 260 | –
26 | Cc1csc(NC(=O)c2cccc(Cl)c2)n1 | 6300 | 17000 | –
27 | Cc1csc(NC(=O)c2cc(Oc3ccccc3S(C)(=O)=O)ccc2N)n1 | 130 | 510 | –
28 | Cn1cnnc1Sc1ccc(N)c(C(=O)Nc2nc(C(F)(F)F)cs2)c1 | 930 | 2700 | –
29 | Cc1csc(NC(=O)c2cc(Sc3ccccn3)ccc2N)n1 | 220 | 1200 | –
30 | Nc1ccccc1C(=O)Nc1nccs1 | > 30000 | > 30000 | –
31 | Cc1csc(NC(=O)c2cc(Oc3ccccc3)ccc2N)n1 | 130 | 700 | –
32 | Cc1csc(NC(=O)c2cc(Sc3nnc[nH]3)ccc2N)n1 | 540 | 2400 | –
